One data set relates to K562. The data set is described as follows: Growth inhibition of human K562 cells incubated for 48 hrs by trypan blue dye exclusion assay. It counts as functional, cell-based.
The species named for another data set is Homo sapiens. Put plainly: Growth inhibition of human CRL11174 cells incubated for 48 hrs by trypan blue dye exclusion assay. It counts as functional.
The subject of a further data set is A549. The data set is described as follows: Growth inhibition of human A549 cells incubated for 48 hrs by trypan blue dye exclusion assay. Type of data set: functional, cell-based.
Data set [1] deals with HL-60. The data set is described as follows: Growth inhibition of human HL60 cells incubated for 48 hrs by trypan blue dye exclusion assay. It counts as functional, cell-based.
Data set [2] deals with MDA-MB-231. Put plainly: Growth inhibition of human MDA-MB-231 cells incubated for 48 hrs by trypan blue dye exclusion assay. It counts as functional, cell-based.
The subject of data set [3] is Jurkat. The data set is described as follows: Inhibition of cell proliferation of human Jurkat cells incubated for 72 hrs by Alamar blue assay. Type of data set: functional, cell-based. In general terms: Resazurin is reduced to fluorescent resorufin, in cell work by metabolically active cells.
In data set [4] the target is T1, 6-phosphofructo-2-kinase/fructose-2,6-bisphosphatase 3 (Homo sapiens, UniProt Q16875). To be noted: 150 uM.
Description: Inhibition of recombinant PFKFB3 (unknown origin) assessed as reduction in enzyme kinetic rate at 150 uM
Data set [5] can be described thus: Solubility in Cremophore:EToH:saline solution in normal conditions using Amber vials after 4 hrs by HPLC method (reference value: 1 mg/ml at 0 hrs). It counts as physicochemical.
For a further data set, the system named is Lewis lung carcinoma. Put plainly: Antitumor activity against mouse LLC cells implanted in C57Bc16 mouse assessed as inhibition of tumor size at 25 mg/kg, ip dosed on days 1,2 and 3 and 35 mg/kg, ip on days Antitumor activity against mouse LLC cells implanted in C57Bc16 mouse assessed as inhibition of tumor size at 25 mg/kg, ip dosed on days 7,8,9,13,14 and 15. It counts as functional, organism-based.

The nature of data set [6]: Solubility in Cremophore:EToH:saline solution in normal conditions using Amber vials after 8 hrs by HPLC method (reference value: 1 mg/ml at 0 hrs). Type of data set: physicochemical.
Data set [7] is described as follows: Solubility in Cremophore:EToH:saline solution in normal conditions using Amber vials after 2 hrs by HPLC method (reference value: 1 mg/ml at 0 hrs). It counts as physicochemical.
Another data set deals with CT26. Put plainly: Antitumor activity against mouse CT26 cells implanted in C57Bc16 mouse assessed as inhibition of tumor size at 20 or 23 mg/kg, ip measured during 7 to 22 days after tumor inoculation. Type of data set: functional, organism-based.
The test system of the next data set is U-87MG ATCC. Put plainly: Antitumor activity against human U87MG cells implanted in C57Bc16 mouse assessed as inhibition of tumor size at 20 mg/kg, ip measured during 7 to 25 days after tumor inoculation. Type of data set: functional, organism-based.
For data set [8], the system named is Jurkat. Put plainly: Suppression of glycolytic flux into lactate in human Jurkat cells expressing inducible FLAG-tagged PFKFB at 10 uM after 36 hrs by NMR spectroscopy. Type of data set: functional, cell-based.
Data set [9] has as its system Jurkat. The data set is described as follows: Reduction in lactate secretion in human Jurkat cells expressing inducible FLAG-tagged PFKFB at 10 uM after 8 hrs by lactate oxidase based colorimetric assay. It counts as functional, cell-based.
Data set [10] can be described thus: Potency index, ratio of IC50 for 3BrPA to IC50 for test compound for growth inhibition of human NHBE cells immortalized with human telomerase and large-T antigen and transformed with mutated Ras protein at 1 uM incubated for 48 to 72 hrs by trypan blue dye exclusion assay. It counts as functional.
The subject of data set [11] is HL-60. Put plainly: Antitumor activity against human HL60 cells xenografted in Balb/c mouse assessed as tumor growth inhibition at 0.07 mg/g, ip dosed as 2 sequential daily injections followed by 7 consecutive days of without treatment and subsequent second dosing and measured on day9. Type of data set: functional, organism-based. In general terms: Xenograft models place foreign cells or tissue in a host animal.

In data set [12] the test system is Jurkat. The data set is described as follows: Inhibition of cell proliferation of human Jurkat cells expressing inducible FLAG-tagged PFKFB at 10 uM incubated for 36 hrs by trypan blue dye exclusion assay. It counts as functional, cell-based.
The test system of data set [13] is NHBE. Put plainly: Growth inhibition of human NHBE cells immortalized with human telomerase and large-T antigen and transformed with mutated Ras protein at 10 uM incubated for 48 to 72 hrs by trypan blue dye exclusion assay. Type of data set: functional, cell-based.
Data set [14] has as its system Jurkat. The data set is described as follows: Reduction in NAD+ level in human Jurkat cells expressing inducible FLAG-tagged PFKFB at 10 uM after 24 hrs. It counts as functional, cell-based.
Data set [15] relates to Jurkat. The data set is described as follows: Reduction in NADH level in human Jurkat cells expressing inducible FLAG-tagged PFKFB at 10 uM after 16 hrs. Type of data set: functional, cell-based.
The test system of data set [16] is Jurkat. The data set is described as follows: Reduction in 2-deoxy-glucose uptake in human Jurkat cells expressing inducible FLAG-tagged PFKFB at 10 uM measured within 4 hrs using [14C]-2-deoxy-glucose by scintillation counting method. Type of data set: functional, cell-based.
Data set [17] deals with Jurkat. Put plainly: Suppression of glycolytic flux into alanine in human Jurkat cells expressing inducible FLAG-tagged PFKFB at 10 uM after 36 hrs by NMR spectroscopy. It counts as functional, cell-based.
Data set [18] relates to NHBE. Put plainly: Growth inhibition of human NHBE cells immortalized with human telomerase and large-T antigen and transformed with mutated Ras protein at 1 uM incubated for 48 to 72 hrs by trypan blue dye exclusion assay. Type of data set: functional, cell-based.
Data set [19] concerns Jurkat. The data set is described as follows: Potency index, ratio of IC50 for growth inhibition of PFKFB3+/+ht/LT/Ras human Jurkat cells to IC50 for growth inhibition of PFKFB3+/-ht/LT/Ras human Jurkat cells. Type of data set: functional.
Data set [20] has as its target T1, 6-phosphofructo-2-kinase/fructose-2,6-bisphosphatase 3. The data set is described as follows: Mixed type inhibition of human PFKFB3 expressed in Escherichia coli BL21 (DE3) assessed as reduction in NADH consumption using fructose-6-phosphate incubated for 15 mins by spectrophotometry based pyruvate kinase and LDH enzyme coupled kinetic assay.
The nature of data set [21]: Potency index, ratio of IC50 for 2-DG to IC50 for test compound for growth inhibition of human NHBE cells immortalized with human telomerase and large-T antigen and transformed with mutated Ras protein at 1 uM incubated for 48 to 72 hrs by trypan blue dye exclusion assay. Type of data set: functional.
For data set [22], the system named is Jurkat. The data set is described as follows: Reduction in Fru-2,6-BP production in human Jurkat cells expressing inducible FLAG-tagged PFKFB at 10 uM measured within 4 hrs. It counts as functional, cell-based.
For data set [23], the system named is Mus musculus. Put plainly: Reduction in [18F]-2-DG uptake in tumor of C57B1/6 mouse transplanted with mouse LLC cells at 0.07 mg/g, ip after 30 mins post dose by micro-PET method. It counts as functional, organism-based.
The nature of data set [24]: Antitumor activity against human HL60 cells xenografted in Balb/c mouse assessed as tumor growth inhibition at 0.07 mg/g, ip dosed as 2 sequential daily injections followed by 7 consecutive days of without treatment. It counts as functional, HL-60.
Data set [25] in a line: Growth inhibition of human NHBE cells at 33 uM incubated for 48 to 72 hrs by trypan blue dye exclusion assay. It counts as cell-based.
The subject of data set [26] is Jurkat. Put plainly: […] cell cycle arrest in human Jurkat cells expressing inducible FLAG-tagged PFKFB assessed as accumulation at G2/M phase by propidium iodide staining based flow cytometry. Type of data set: functional. In general terms: A flow cytometer gives signals particle by particle.
Data set [27] has as its system Mus musculus. Put plainly: Reduction in F2,6BP production excised tumor of C57B1/6 mouse transplanted with mouse LLC cells at 0.07 mg/g, ip after 4 hrs post dose. Type of data set: functional, organism-based.
The subject of data set [28] is Mus musculus. The data set is described as follows: Reduction in [18F]-2-DG uptake in cardiac tissue of C57B1/6 mouse transplanted with mouse LLC cells at 0.07 mg/g, ip after 30 mins post dose by micro-PET method. Type of data set: functional, organism-based.
Data set [29] concerns MDA-MB-231. The data set is described as follows: Antitumor activity against human MDA-MB-231 cells xenografted in Balb/c mouse assessed as tumor growth inhibition at 0.07 mg/g, ip dosed as cyclical regimen of 3 daily injections followed by 3 days of without treatment. It counts as functional.
For data set [30], the system named is Jurkat. The data set is described as follows: Inhibition of cell proliferation of human Jurkat cells expressing inducible FLAG-tagged PFKFB incubated for 48 hrs by trypan blue dye exclusion assay. It counts as functional, cell-based.
The subject of data set [31] is Jurkat. Put plainly: Reduction in ATP level in human Jurkat cells expressing inducible FLAG-tagged PFKFB at 10 uM after 24 hrs. It counts as functional, cell-based.

pIC50, pKi: −log10 of the molar value. The source made the active and inactive calls. The calls are words filed in the database; no cut-off is given here. Some results are limits rather than exact numbers.

By pIC50 is commonly meant the IC50 on a negative log10 scale, so that one unit is a factor of ten. Read a high pIC50 as a small IC50. Broadly, the inhibition is the relative decrease from the control value, in per cent. By solubility is commonly meant how much of the substance goes into solution per volume. The low end stands for little dissolved substance, the high end for much dissolved substance. The pKi is the Ki on a negative log10 scale, so that one unit is a factor of ten.

T1 sequence (Q16875 whole entry): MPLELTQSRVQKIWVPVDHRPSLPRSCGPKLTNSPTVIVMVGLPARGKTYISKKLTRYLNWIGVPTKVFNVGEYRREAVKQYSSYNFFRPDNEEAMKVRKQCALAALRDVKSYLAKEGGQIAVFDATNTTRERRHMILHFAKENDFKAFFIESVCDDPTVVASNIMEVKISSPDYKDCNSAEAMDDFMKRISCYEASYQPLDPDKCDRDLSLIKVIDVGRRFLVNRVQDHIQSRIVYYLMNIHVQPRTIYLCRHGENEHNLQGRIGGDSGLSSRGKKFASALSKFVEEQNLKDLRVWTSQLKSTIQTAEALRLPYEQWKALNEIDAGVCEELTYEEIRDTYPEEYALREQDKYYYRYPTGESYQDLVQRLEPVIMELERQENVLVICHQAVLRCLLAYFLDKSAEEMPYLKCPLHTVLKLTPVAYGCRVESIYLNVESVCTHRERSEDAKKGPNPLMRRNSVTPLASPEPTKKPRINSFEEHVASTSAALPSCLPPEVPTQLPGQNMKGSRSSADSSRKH

As to `CC(=O)Nc1ccc(/C=C/C(=O)c2ccncc2)cc1`, the “growth inhibition (GI)” value in the data set on K562, in the data set filed under Homo sapiens, with A549, in the data set with HL-60 [1] and with MDA-MB-231 [2] was “Active” in each case.

As for `O=C(/C=C/c1cnc2ccccc2c1)c1ccncc1`, the pIC50 with Jurkat [3] was less than 5.40.

Consider `O=C(/C=C/c1ccc2ccccc2n1)c1cccnc1`, for which the “growth inhibition (GI)” value with K562, in the data set filed under Homo sapiens, with A549, with HL-60 [1] and with MDA-MB-231 [2] was “Active” each time. Besides, the inhibition in [4] was more than 80%.

As to `O=C(/C=C/c1ccccc1Cl)c1cccnc1`, the “growth inhibition (GI)” value in the data set with K562, in the data set filed under Homo sapiens, with A549, with HL-60 [1] and in the data set with MDA-MB-231 [2] was “Active” throughout.

In data set [5], `Cl.O=C(/C=C/c1ccc2cccc(O)c2n1)c1ccncc1` displayed a solubility at 4 h of 1000 µg/mL. The inhibition result in the data set on Lewis lung carcinoma is “Active”. Also, the solubility at 8 h in data set [6] came to 1000 µg/mL. Also, in data set [7], the solubility at 2 h amounted to 1000 µg/mL.

In the case of `O=C(/C=C/c1cccc2ccccc12)c1ccncc1`, the “growth inhibition (GI)” value with K562, in the data set listed under Homo sapiens, in the data set with A549, in the data set with HL-60 [1] and in the data set with MDA-MB-231 [2] was “Active” in each case.

As for `O=C(/C=C/c1ccccc1Cl)c1ccccn1`, the “growth inhibition (GI)” value in the data set on K562, in the data set filed under Homo sapiens, in the data set with A549, with HL-60 [1] and in the data set with MDA-MB-231 [2] was “Active” in each case.

`O=C(/C=C/c1ccc(Cl)cc1)c1cccnc1`: the “growth inhibition (GI)” value in the data set with K562 and in the data set on HL-60 [1] was “Dose-dependent effect” in each case. In addition, the “growth inhibition (GI)” value in the data set filed under Homo sapiens, in the data set on A549 and with MDA-MB-231 [2] was “Active” throughout.

`Cc1cccc2ccc(/C=C/C(=O)c3ccncc3)nc12`: the inhibition entry in the data set on CT26 and with U-87MG ATCC was “Active” each time.

Turning to `O=C(/C=C/c1cccnc1)c1ccncc1`, the outcome in the data set with Jurkat [8], in the data set on Jurkat [9], in the data set with Jurkat [14], in the data set with Jurkat [15], with Jurkat [16] and in the data set on Jurkat [22] was Active. Also, the outcome with Mus musculus [23], in the data set on Jurkat [26], in the data set on Mus musculus [27], in the data set with Mus musculus [28] and in the data set with Jurkat [31] was Active. Moreover, the “Ratio IC50” value in [10] turned out to be 10; with Jurkat [19], 2; in data set [21] it was 10. The TGI result in the data set with HL-60 [11] was “Active”. In addition, the inhibition entry in the data set on Jurkat [12] is “Active”. The “growth inhibition (GI)” value with NHBE [13] and with NHBE [18] was “Active” each time. Moreover, the result in the data set on Jurkat [17] was inactive. Moreover, the pKi in [20] was 4.60. The TGI in data set [24] was more than 75%. In data set [25], the Activity entry was “Non-toxic”. The Imax in the data set with MDA-MB-231 [29] is 64%. Moreover, the inhibition result with Jurkat [30] was “Dose-dependent effect”.

The values are drawn from ChEMBL document CHEMBL3714717, “Family of PFKFB3 inhibitors with anti-neoplastic activities” (2013).
